Where a SMILES comes first, the peptide text is derived from it. Bridges are numbered along the chain shown (N, C = ends). Roman numbers before positions name the chains, in order.
Assays:
[1] = Solubility of the polypeptide; type: physicochemical
Text: svD2 in lyophilized form is a white fluffy powder using trifluoroacetate (TFA) or acetate as a counterion. Net polypeptide content with and without the counter ion was approximately 88% and 73%, respectively. The remainder was likely water of hydration of the highly polar polypeptide. Solubility of the polypeptide in water is high. In the preparation of aqueous pharmaceutical compositions of the polypeptide with any of the pharmaceutically acceptable carriers described above, concentrations of the polypeptide in isotonic saline of 10 mM, and possibly somewhat higher, can be readily achieved. According to representative embodiments, therefore, the polypeptide is administered to a subject suffering from cancer in an aqueous pharmaceutical composition having a polypeptide concentration generally from about 0.1 mM to about 10 mM, typically from about 0.1 mM to about 5 mM, and a pharmaceutically acceptable carrier.

peritoneal cells = assay: Response of peritoneal cells in mice (flow cytometry); type: in vivo; conditions: C57BL/6 mice
Description: The number of cells is indicated as a ratio of the total number of each cell type normalized to the number of cells in untreated control samples.
To examine whether svD2 effectively stimulates the immune system in vivo, the peptide was injected subcutaneously on alternate days into Th1-poised C57BL/6 strain mice at a dose of 1 μmole/kg.

[2] = system: ovarian cancer cell line ID8; assay: Survival of mice implanted with ID8 cells; type: in vivo, C57Bl/6 mice
Description: Tumors were allowed to progress for 45 days before the animal were injected with svD2 every other day.
Female C57Bl/6 mice were implanted with ID8 cells. After allowing the cell to develop into tumors for 45 days, the animals received injections of svD2 every other day at a dose of 1 nmol/g body weight or 0.1 nmol/g body weight. Accumulation of ascites was monitored by weight of the animals as the result of expansion of the peritoneal cavity. […] Table 3 summarizes the survival data including a treatment with paclitaxel, which is a standard-of-care chemotherapeutic drug. The animals were given paclitaxel at a dose of 18 mg/kg body weight on days 45, 47 and 49 of the experiment.

[3] = system: Human peripheral blood mononuclear cells; assay: Cytokine release by human PBMCs (cytokine antibody array); type: cell-based; conditions: 4-hour treatment, svD2 100 nM
Description: The polypeptide svD2, synthesized in Example 1 above, was evaluated in terms of a number of biological activities thought to correlate with its effectiveness against cancer.

human PBMC cultures = assay: Phagocytosis of opsonized microspheres in human PBMC cultures; type: cell-based; conditions: for Beads/cell (mean ± SD): treated 20 h (50 nM svD2 or 100 ng/mL IFNγ), challenged 1 h with microspheres opsonized with rabbit antiserum, 15 cells
Description: Whether the peptide svD2 stimulates phagocytosis was studied in the human PBMC cultures. The cells were treated 20 h with vehicle (phosphate-buffered saline, PBS), 50 nM svD2 or 100 ng/mL IFNγ, and then challenged 1 h with microspheres. Cells were fixed with 2% formalin and washed with PBS. Beads in each cell were counted on microscope images, with 15 cells analyzed for each treatment.

[4] = svD2 0.1 nmol/g every other day from day 45
[5] = svD2 1 nmol/g every other day from day 45
[6] = paclitaxel 18 mg/kg on days 45, 47 and 49

For `CC(C)[C@H](N)C(=O)N[C@@H](CO)C(=O)N[C@@H](CC(N)=O)C(=O)N[C@@H](CCC(N)=O)C(=O)N[C@@H](Cc1c[nH]cn1)C(=O)NCC(=O)NCC(=O)NCC(=O)N[C@@H](CO)C(=O)NCCCC[C@H](NC(=O)[C@H](CO)NC(=O)CNC(=O)CNC(=O)CNC(=O)[C@H](Cc1c[nH]cn1)NC(=O)[C@H](CCC(N)=O)NC(=O)[C@H](CC(N)=O)NC(=O)[C@H](CO)NC(=O)[C@@H](N)C(C)C)C(=O)NCCCC[C@H](NC(=O)[C@H](CCCCNC(=O)[C@H](CO)NC(=O)CNC(=O)CNC(=O)CNC(=O)[C@H](Cc1c[nH]cn1)NC(=O)[C@H](CCC(N)=O)NC(=O)[C@H](CC(N)=O)NC(=O)[C@H](CO)NC(=O)[C@@H](N)C(C)C)NC(=O)[C@H](CO)NC(=O)CNC(=O)CNC(=O)CNC(=O)[C@H](Cc1c[nH]cn1)NC(=O)[C@H](CCC(N)=O)NC(=O)[C@H](CC(N)=O)NC(=O)[C@H](CO)NC(=O)[C@@H](N)C(C)C)C(N)=O` [svD2, [(VSNQHGGGS)2K]2K-NH2] (I: H-VSNQHGGGSKK-NH2 / II: H-VSNQHGGGSK / III: H-VSNQHGGGS / IV: H-VSNQHGGGS; amide I:10-IV:C, I:11-II:C, II:10-III:C; N-terminus assumed), the “Toxicity in treated mice” value (Toxicity in vivo) was “No evidence of toxicity”, the solubility ([1]; isotonic saline, saline or isotonic, read-out: Achievable concentration in isotonic saline) was at least 10 mM and the Solubility in water ([1]; water) was “high”. For the same molecule, the “Memory B cells in the peritoneal cavity” value (peritoneal cells; 1 nmole/g doses, flow cytometry 24 hours after each injection) was “increase in memory B cells”, the “Mature immune cells in peritoneal cells” value (peritoneal cells; 1 μmole/kg subcutaneously on alternate days, 24 hours after the second injection) was “several-fold increases” and the “Changes in mature cell populations (CD3, CD8, NK1.1, CD19, CD69)” value (peritoneal cells; 1 μmole/kg subcutaneously, 24 hours after the first injection) was “small”. For the same molecule, the “Survival rate of mice implanted with ID8 cells” value ([2]; both doses, 1 nmol/g and 0.1 nmol/g body weight) was “improved the survival rate”, the “Mean survival” value [2, 4] was 74.5 days and the Number of deaths [2, 4] was 4. For the same molecule, the “Mean survival” value [2, 5] was 74 days, the Number of deaths [2, 5] was 4 and the “Relative level of Eotaxin released” value [3] was 47. The “Relative level of Eotaxin-2 released” value [3] was 470, the “Relative level of GM-CSF released” value [3] was 96 and the “Relative level of ICAM-1 released” value [3] was 70. The “Relative level of IFNγ released” value [3] was 170, the “Relative level of IL-1a released” value [3] was 322 and the “Relative level of IL-12p70 released” value [3] was 117. For the same molecule, the “Relative level of IL-15 released” value [3] was 137, the “Relative level of IL-17 released” value [3] was 21 and the “Relative level of IL-21 released” value [3] was 130. The “Relative level of IP-10 released” value [3] was 377, the “Relative level of MCP-2 released” value [3] was 97 and the “Relative level of MIG released” value [3] was 94. For the same molecule, the “Relative level of PDGF-BB released” value [3] was 82, the “Relative level of TIMP-2 released” value [3] was 285 and the “Relative level of TNF-α released” value [3] was 138. For the same molecule, the “Relative level of TNF-β released” value [3] was 93, the “Stimulation of phagocytic cells” value (human PBMC cultures; human PBMC cultures, 50 nM svD2, 20 h) was “does not significantly stimulate phagocytic cells” and the “Beads/cell (mean ± SD)” value (human PBMC cultures) was 1.3 ± 1.8 Beads/cell.

In the case of `CC(=O)O[C@H]1C(=O)[C@@]2(C)[C@H]([C@H](OC(=O)c3ccccc3)[C@]3(O)C[C@H](OC(=O)[C@H](O)[C@@H](NC(=O)c4ccccc4)c4ccccc4)C(C)=C1C3(C)C)[C@]1(OC(C)=O)CO[C@@H]1C[C@@H]2O` [Paclitaxel, paclitaxel, reference compound], the “Mean survival” value [2, 6] is reported as 81.5 days and the Number of deaths [2, 6] is reported as 10.

B1: IFNγ: cytokine used as comparator treatment, 100 ng/mL in phagocytosis test (protein, UniProt P01579 24-161, looked up)
Interferon gamma: QDPYVKEAENLKKYFNAGHSDVADNGTLFLGILKNWKEESDRKIMQSQIVSFYFKLFKNFKDDQSIQKSVETIKEDMNVKFFNSNKKKRDDFEKLTNYSVTDLNVQRKAIHELIQVMAELSPAAKTGKRKRSQMLFRG
For B1, the “Relative level of IL-21 released” value [3] was “(IFNγ, 100)” and the “Beads/cell (mean ± SD)” value (human PBMC cultures) was 35.8 ± 12.6 Beads/cell.
